Source: ChEMBL document CHEMBL1201862, “PubChem BioAssay data set” (2004)
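Cells were grown in 96-well plates and exposed to each compound for 48 hours at five concentrations; endpoints were interpolated linearly between bracketing concentrations, or set to the highest concentration if not reached. The concentration for 50% growth inhibition is given as GI50.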 Active and inactive are the calls of the source. No stated cut-off is given here; in the data, active = GI50 up to about 1.1 µM and inactive = higher.

Experiments:
Experiment in all cases: NCI anticancer screen, dose series, 48 h
COLO 205 = system: COLO 205
MDA-MB-231 = system: MDA-MB-231
A498 = system: A498
PC-3 = system: PC-3
OVCAR-8 = system: OVCAR-8
HT-29 = system: HT-29
OVCAR-3 = system: OVCAR-3
MCF7 = system: MCF7
HCT-116 = system: HCT-116
M14 = system: M14
UACC-62 = system: UACC-62
NCI-H522 = system: NCI-H522
SR = system: SR
OVCAR-5 = system: OVCAR-5
CCRF-CEM = system: CCRF-CEM
OVCAR-4 = system: OVCAR-4
SK-OV-3 = system: SK-OV-3
UACC-257 = system: UACC-257
NCI-H23 = system: NCI-H23

Measured: GI50

Cn1c(N)c(/C=N/NC(=O)CC#N)c(=O)n(C)c1=O
inactive: COLO 205 > 100 µM | MDA-MB-231 > 100 µM | A498 > 100 µM | PC-3 > 100 µM | OVCAR-8 > 100 µM | HT-29 > 100 µM | OVCAR-3 > 100 µM | MCF7 > 100 µM | HCT-116 > 100 µM | M14 > 100 µM | UACC-62 > 100 µM | NCI-H522 > 100 µM | SR > 100 µM | OVCAR-5 > 100 µM | CCRF-CEM > 100 µM | OVCAR-4 > 100 µM | SK-OV-3 > 100 µM | UACC-257 > 100 µM

C[n+]1c(-c2ccc(/C=N/Nc3ccnc(N/N=C/c4ccc(-c5cn6ccsc6[n+]5C)cc4)n3)cc2)cn2ccsc21
inactive: COLO 205 35.4 µM | MDA-MB-231 32.7 µM | A498 27.9 µM | NCI-H23 22.9 µM | PC-3 30.2 µM | OVCAR-8 28.9 µM | HT-29 16.9 µM | OVCAR-3 > 100 µM | MCF7 48.4 µM | M14 8.81 µM | UACC-62 25.1 µM | NCI-H522 92.7 µM | SR 11.3 µM | OVCAR-5 19.1 µM | CCRF-CEM 14.9 µM | OVCAR-4 51.9 µM | SK-OV-3 > 100 µM | UACC-257 25.5 µM

CCOC(=O)c1cn(CC)c(=O)n2c1nc1ccccc12
inactive: COLO 205 > 100 µM | MDA-MB-231 > 100 µM | A498 32.4 µM | NCI-H23 55.7 µM | PC-3 > 100 µM | OVCAR-8 38.3 µM | HT-29 36.7 µM | OVCAR-3 83.8 µM | MCF7 54.6 µM | HCT-116 50.6 µM | M14 > 100 µM | UACC-62 57.5 µM | SR 28.4 µM | OVCAR-5 > 100 µM | CCRF-CEM 28.4 µM | OVCAR-4 35.3 µM | UACC-257 > 100 µM

O=C(OCC1CCCN2CCCCC12)c1ccncc1 (stereo unspecified)
inactive: COLO 205 > 100 µM | MDA-MB-231 > 100 µM | A498 > 100 µM | NCI-H23 > 100 µM | PC-3 > 100 µM | OVCAR-8 > 100 µM | HT-29 > 100 µM | OVCAR-3 > 100 µM | MCF7 > 100 µM | HCT-116 > 100 µM | M14 > 100 µM | UACC-62 > 100 µM | SR > 100 µM | OVCAR-5 > 100 µM | CCRF-CEM > 100 µM | OVCAR-4 > 100 µM | SK-OV-3 > 100 µM | UACC-257 > 100 µM

CC(=O)NNC1=NN(C(C)=O)C2(S1)C(=O)Nc1ccc(C)cc12 (stereo unspecified)
inactive: COLO 205 > 100 µM | MDA-MB-231 80.2 µM | A498 38.1 µM | NCI-H23 > 100 µM | PC-3 67.5 µM | OVCAR-8 83.6 µM | HT-29 > 100 µM | OVCAR-3 > 100 µM | MCF7 58.7 µM | HCT-116 > 100 µM | M14 > 100 µM | UACC-62 39.4 µM | NCI-H522 42 µM | SR 55.5 µM | OVCAR-5 > 100 µM | CCRF-CEM 48.4 µM | OVCAR-4 88.1 µM | UACC-257 > 100 µM

O=[N+]([O-])c1cccc([N+](=O)[O-])c1Cl
inactive: COLO 205 20.6 µM | MDA-MB-231 21.2 µM | A498 21.8 µM | NCI-H23 16.6 µM | PC-3 13.5 µM | OVCAR-8 16.4 µM | HT-29 19.9 µM | OVCAR-3 1.29 µM | MCF7 4.24 µM | HCT-116 40.6 µM | M14 10.2 µM | UACC-62 17.5 µM | NCI-H522 12.6 µM | SR 3.93 µM | OVCAR-5 19.1 µM | OVCAR-4 22.8 µM | UACC-257 11 µM

COc1ccc2[nH]c(CCNC(=O)c3cc([N+](=O)[O-])cc([N+](=O)[O-])c3)cc2c1
inactive: COLO 205 > 100 µM | MDA-MB-231 25.4 µM | A498 > 100 µM | NCI-H23 47.9 µM | PC-3 > 100 µM | OVCAR-8 44.5 µM | HT-29 > 100 µM | OVCAR-3 > 100 µM | MCF7 69.3 µM | HCT-116 > 100 µM | M14 > 100 µM | UACC-62 36.1 µM | SR > 100 µM | CCRF-CEM > 100 µM | OVCAR-4 > 100 µM | SK-OV-3 41 µM | UACC-257 > 100 µM

O=C(O)c1ccc(Nc2cnc3ccc(C(F)(F)F)cc3n2)cc1
inactive: COLO 205 17.2 µM | MDA-MB-231 19.5 µM | A498 23.8 µM | NCI-H23 17 µM | PC-3 17.7 µM | OVCAR-8 17.1 µM | HT-29 17.1 µM | OVCAR-3 28.2 µM | MCF7 33 µM | HCT-116 20.1 µM | M14 38.6 µM | UACC-62 14 µM | SR 20.4 µM | OVCAR-5 32.6 µM | CCRF-CEM 15.6 µM | OVCAR-4 18.9 µM | SK-OV-3 33.5 µM | UACC-257 32.7 µM

CCOC(=O)/C(C(=S)Nc1ccccc1)=C(/N)N1CCCC1
inactive: COLO 205 > 100 µM | MDA-MB-231 29.7 µM | A498 > 100 µM | NCI-H23 > 100 µM | PC-3 38.9 µM | OVCAR-8 > 100 µM | HT-29 > 100 µM | OVCAR-3 > 100 µM | MCF7 54.1 µM | HCT-116 65.5 µM | M14 72.6 µM | UACC-62 > 100 µM | NCI-H522 > 100 µM | SR > 100 µM | OVCAR-5 > 100 µM | CCRF-CEM 46.1 µM | OVCAR-4 > 100 µM | UACC-257 > 100 µM

CCC(C)C(NC(=O)c1cccc2c(=O)c3ccccc3[nH]c12)C(=O)O (stereo unspecified)
inactive: COLO 205 > 100 µM | MDA-MB-231 > 100 µM | A498 > 100 µM | NCI-H23 > 100 µM | PC-3 > 100 µM | OVCAR-8 > 100 µM | HT-29 > 100 µM | OVCAR-3 > 100 µM | MCF7 > 100 µM | HCT-116 > 100 µM | M14 > 100 µM | UACC-62 > 100 µM | NCI-H522 > 100 µM | SR > 100 µM | OVCAR-5 > 100 µM | CCRF-CEM 64 µM | OVCAR-4 43.8 µM | SK-OV-3 > 100 µM

O=C(NC12CC3CC(CC(C3)C1)C2)n1cnc2cncnc21
inactive: COLO 205 20.6 µM | MDA-MB-231 70 µM | A498 65.9 µM | NCI-H23 37.8 µM | PC-3 25.8 µM | OVCAR-8 30.1 µM | HT-29 28.4 µM | OVCAR-3 18.2 µM | MCF7 27.5 µM | HCT-116 32.7 µM | M14 54.7 µM | UACC-62 39.2 µM | NCI-H522 16.1 µM | SR 24.4 µM | OVCAR-5 34.3 µM | CCRF-CEM 26.5 µM | SK-OV-3 17.8 µM | UACC-257 56.5 µM

COC(=O)c1ccc2c(c1)CC1(C2)Cc2cc3c(c(C(=O)OC)c2C1)CCCC3 (stereo unspecified)
inactive: COLO 205 49.4 µM | MDA-MB-231 64.3 µM | A498 32.5 µM | NCI-H23 65.5 µM | PC-3 54.1 µM | OVCAR-8 > 100 µM | HT-29 55.7 µM | OVCAR-3 18.3 µM | MCF7 68.5 µM | HCT-116 44.6 µM | UACC-62 37.1 µM | NCI-H522 > 100 µM | SR 69.5 µM | OVCAR-5 > 100 µM | CCRF-CEM 48.6 µM | OVCAR-4 50.5 µM | SK-OV-3 41.7 µM | UACC-257 48.4 µM

COC(=O)CNC(=O)c1cc(C)cc2c1Oc1c(cc(C)cc1C(=O)NCC(=O)OC)S2
inactive: COLO 205 28.4 µM | MDA-MB-231 > 100 µM | NCI-H23 58.7 µM | PC-3 > 100 µM | OVCAR-8 > 100 µM | HT-29 47.1 µM | OVCAR-3 38.5 µM | MCF7 98.9 µM | HCT-116 > 100 µM | M14 42.6 µM | UACC-62 34.1 µM | NCI-H522 89.7 µM | SR 31 µM | OVCAR-5 > 100 µM | CCRF-CEM 60.1 µM | OVCAR-4 > 100 µM | SK-OV-3 56 µM | UACC-257 49.5 µM

CC(C)(C)C1CCC2c3c([nH]c4ccccc34)C3C(=O)N(c4cc(Cl)ccc4Cl)C(=O)C3C2C1 (stereo unspecified)
inactive: COLO 205 > 100 µM | MDA-MB-231 25.9 µM | A498 > 100 µM | NCI-H23 > 100 µM | PC-3 > 100 µM | OVCAR-8 52.6 µM | HT-29 > 100 µM | OVCAR-3 > 100 µM | MCF7 > 100 µM | HCT-116 > 100 µM | M14 > 100 µM | UACC-62 > 100 µM | SR > 10 µM | OVCAR-5 > 100 µM | CCRF-CEM > 100 µM | SK-OV-3 > 100 µM | UACC-257 > 100 µM

O=C1c2cc3ccccc3cc2C2(c3ccc(Cl)cc3)NCCN12 (stereo unspecified)
inactive: COLO 205 17.6 µM | MDA-MB-231 87.7 µM | A498 77.3 µM | NCI-H23 22.1 µM | PC-3 31.1 µM | OVCAR-8 33.3 µM | HT-29 34.8 µM | OVCAR-3 23.6 µM | MCF7 26.2 µM | HCT-116 18 µM | M14 26.8 µM | UACC-62 19.2 µM | SR 29 µM | OVCAR-5 21.5 µM | CCRF-CEM 33 µM | OVCAR-4 52.5 µM | SK-OV-3 29.3 µM | UACC-257 31.8 µM
